Reference: US11129835B2, “Methods and compositions for the inhibition of PIN1” (Beth Israel Deaconess Medical Center, Inc., priority 2012, dated 2021)

Assays:
[1] = molecular target: T1, Pin1 (Homo sapiens, UniProt Q13526); assay: confirmatory Pin1 fluorescence polarization competition assay (Alexa488 reconfirmed); settings: for Emax: read-out: Alexa488 Reconfirmed Efficacy;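 on all read-outs here: Pin1 competition with a HiFluor488-labelled peptide probe, read as fluorescence polarization after 10 min at room temperature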
T1 sequence (Q13526 whole entry): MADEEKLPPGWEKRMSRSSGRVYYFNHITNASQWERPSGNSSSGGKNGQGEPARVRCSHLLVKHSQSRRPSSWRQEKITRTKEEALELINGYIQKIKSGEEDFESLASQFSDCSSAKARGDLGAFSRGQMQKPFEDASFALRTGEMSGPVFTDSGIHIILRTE
Protocol: (§1) The goal of this assay was to identify small-molecule inhibitors of Pin1 using a fluorescence polarization competition assay (FIG. 1). […] Candidate compounds were screened in a concentration-titration series (e.g., 57 μM to 0.7 nM).
(§2) Pin1 (0.6 μM) was dispensed into black, solid 1536-well plates (32 rows by 48 columns) at 2 μL/well in Pin1 buffer (10 mM HEPES (pH 7.5), 10 mM NaCl, 0.01% Tween20, 1 mM DTT, and 1% glycerol). Next, 23 nL of compound or DMSO was delivered to each well using a pin tool (tip wash sequence: DMSO, IPA, MeOH, 3 s vacuum dry). Two μL of Pin1-1b-HiFluor488 peptide in buffer (10 mM HEPES (pH 7.5), 10 mM NaCl, 0.01% Tween20, 1 mM DTT, and 1% glycerol, 0.02 μM Pin1-1b-HiFluor488) or DMSO was then dispensed to each well using a pin tool (tip wash sequence: DMSO, IPA, MeOH, 3 s vacuum dry), and plates were incubated at room temperature for 10 min (Table 2). Each plate included controls with no candidate inhibitory compound (32 wells), with unlabeled Pin1-1c titration (3.5 mM to 0.020 mM in a 1:2 dilution series including 2 replicates per concentration; 32 wells), and without Pin1 (64 wells).
(§3) The fluorescence polarization signal of each well was measured on a ViewLux® plate reader using a 480/20 nm excitation filter and 540/25 nm S and P emission filters with a 20 second exposure with 2× binning (Table 2). Percent inhibitory activity was determined from corrected fluorescence polarization values.
(§4) Concentration-response curves were fitted to the signals arising from the resulting fluorescence polarization. The concentration-effect curves were then classified based on curve quality (r^2), response magnitude, and degree of measured activity. Compounds were subsequently categorized based on their curve class.

[2] = molecular target: T1, Pin1; assay: Pin1 fluorescence polarization competition assay, primary qHTS (HiFluor-488 / Alexa488 probe);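 further: Pin1 protein with fluorescent peptide probe, compound displacement read by fluorescence polarization, percent inhibition derived from corrected polarization values, concentration-response curves in 1536-well format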
Protocol: as §1, §2, §3, §4
Curves showing change polarized fluorescence may be categorized into 5 classes. Class 1 includes complete curves, having 2 asymptotes and an r^2 value of ≥0.9, with an efficacy of either >80% (class 1.1) or ≤80% (class 1.2). Class 1 curves may also be classified as noisy curves when efficacy is >80% and r^2<0.9 (class 1.3) or when efficacy is ≤80% and r^2<0.9 (class 1.4). Class 2 includes incomplete curves having 1 asymptote and an r^2 value of either >0.9 (subclass a) or <0.9 (subclass b), with an efficacy of either >80% (class 2.1) or ≤80% (class 2.2). Class 2 curves may also be classified as noisy curves when efficacy is >80% and r^2<0.9 (class 2.3) or when efficacy is ≤80% and r^2<0.9 (class 2.4). Class 3 includes single point activity curves having 1 asymptote and an efficacy >3 SD from the mean activity of the sample field at the highest tested concentration. […] A fifth class captures any curves not otherwise classified (FIG. 4).

[3] = molecular target: T1, Pin1; assay: Pin1 fluorescence polarization competition assay with Tamra-probe (secondary); settings: for Emax: read-out: Tamra Secondary Efficacy; for Tamra Secondary Curve Class: Tamra-probe
Protocol: An assay was developed for the identification of inhibitors of Pin1. […] Candidate compounds were screened in a concentration-titration series (e.g., 57 μM to 0.7 nM).
as §2, §3, §4
A further secondary assessment was accomplished by replacing the HiFluor-488-labeled probe with Tamra-probe, a red-shifted fluorophore.

[4] = Alexa488 Primary Potency, primary qHTS
[5] = Average HTS Potency, average over Alexa488 primary, Alexa488 reconfirmed and Tamra secondary assays
[6] = read-out: Alexa488 Primary Efficacy

| Structure (SMILES) | IC50 [1] [µM] | Emax [1] [%] | IC50 [2, 4] [µM] | IC50 [2, 5] [µM] | Alexa488 Primary Curve Class ([2]; primary qHTS) | Emax [2, 6] [%] | Emax ([2]; read-out: Average HTS Efficacy) [%] | IC50 [3] [µM] | Emax [3] [%] | Tamra Secondary Curve Class [3] |
| --- | --- | --- | --- | --- | --- | --- | --- | --- | --- | --- |
| CC(=O)c1ccc2c(c1)C1C=CCC1C(C(=O)O)N2 (centres unmarked) [Compound 1] | 1.3 | 90 | 6 | 3 | 1.2 (≤80% (class 1.2)) | 66 | 84 | 1.2 | 95 | – |
| O=C(O)C1Nc2c(O)cc(Cl)c([N+](=O)[O-])c2C2C=CCC12 (centres unmarked) [Compound 2] | 2 | 89 | 7 | 4 | – | 86 | 81 | 3 | 69 | 1.2 (≤80% (class 1.2)) |
| O=C(O)C1Nc2c(O)cccc2C2C=CCC12 (centres unmarked) [Compound 4] | – | – | 3 | 7 | 1.2 (≤80% (class 1.2)) | 23 | 30 | 11 | 37 | 2.2 (≤80% (class 2.2)) |
| O=C(c1cccs1)c1no[n+]([O-])c1C(=O)c1cccs1 [Compound 28] | 0.08 | 99 | 1.69 | 0.89 | – | 89 | 94 | – | – | – |
| CC(=O)Nc1cc(=O)c2[nH]o[nH]c=2c1=O [Compound 50] | 7 | 98 | 1 | 4 | – | 93 | 95 | – | – | – |

More lines, now with the values ahead:

| IC50 [1] [µM] | Emax [1] [%] | IC50 [2, 4] [µM] | IC50 [2, 5] [µM] | Alexa488 Primary Curve Class ([2]; primary qHTS) | Emax [2, 6] [%] | Emax ([2]; read-out: Average HTS Efficacy) [%] | IC50 [3] [µM] | Emax [3] [%] | Tamra Secondary Curve Class [3] | Structure (SMILES) |
| --- | --- | --- | --- | --- | --- | --- | --- | --- | --- | --- |
| 4.8 | 82.9 | 22.4 | 13.6 | 2.2 (≤80% (class 2.2)) | 81.3 | 82.1 | – | – | – | Cc1cccc(N(Cc2cc(=O)[nH]c3ccccc23)C(=O)CCl)c1 [Compound 10] |
| – | – | 38 | 34 | 2.2 (≤80% (class 2.2)) | 22 | 47 | 30 | 73 | 3.0 | Cc1ccc(NC(=O)CN(C)C(=O)c2cccc(-n3cccc3)c2)cc1 [Compound 25] |
| 6 | 98 | 19 | 13 | – | 103 | 101 | – | – | – | COc1cc(/C=C2\SC(=O)N(c3ccc(Cl)cc3)C2=O)cc([N+](=O)[O-])c1O [Compound 38] |
| – | – | 14 | 17 | 2.2 (≤80% (class 2.2)) | 28 | 41 | 21 | 53 | 3.0 | COc1ccc(NC(=O)CN(C)C(O)c2cc(-c3ccco3)nc3ccccc23)cc1 (centres unmarked) [Compound 39] |
| – | – | 16 | 20 | 1.2 (≤80% (class 1.2)) | 63 | 67 | 24 | 71 | 3.0 | O=C(O)c1[nH]c2ccccc2c1C(c1cc(Br)ccc1O)c1c(C(=O)O)[nH]c2ccccc12 [Compound 43] |
| – | – | 22 | 30 | – | 72 | 71 | 38 | 71 | 3.0 | CCOc1cc(Br)cc(C(c2c(C(=O)O)[nH]c3ccccc23)c2c(C(=O)O)[nH]c3ccccc23)c1O [Compound 45] |
| 1 | 73 | 1 | 1 | – | 53 | 63 | – | – | – | CCn1nc(-c2ccccc2C)nc2c(=O)n(C)c(=O)nc1-2 [Compound 48] |
| 1 | 70 | 50 | 25 | 1.2 (≤80% (class 1.2)) | 27 | 48 | – | – | – | Cn1nc(-c2ccncc2)nc2c(=O)n(C)c(=O)nc1-2 [Compound 49] |
